Laboratory results published in patent US20080051384A1, “ANTIVIRAL AGENTS” (Genelabs Technologies, Inc., priority 2006, published 2008).

Assay: Replicon Assay (luciferase, ET cell line)
Type: cell-based, HCV
Details: Hepatitis C virus; tested at 6.25 μM; inhibition of replication (luciferase activity) relative to no compound control
Description: A cell line, ET (Huh-lucubineo-ET) was used for screening of compounds for inhibiting HCV RNA dependent RNA polymerase. The ET cell line was stably transfected with RNA transcripts harboring a I389luc-ubi-neo/NS3-3′/ET; replicon with firefly luciferase-ubiquitin-neomycin phosphotransferase fusion protein and EMCV-IRES driven NS3-5B polyprotein containing the cell culture adaptive mutations (E1202G; T12801; K1846T) (Krieger at al, 2001 and unpublished). The ET cells were grown in DMEM, supplemented with 10% fetal calf serum, 2 mM Glutamine, Penicillin (100 IU/mL)/Streptomycin (100 μg/mL), 1× nonessential amino acids, and 250 μg/mL G418 (“Geneticin”). They are all available through Life Technologies (Bethesda, Md.). The cells were plated at 0.5-1.0×10^4 cells/well in the 96 well plates and incubated for 24 hrs before adding test compound. The compounds were added to the cells to achieve a final concentration of 0.1 nM to 50 μm and a final DMSO concentration of 0.5%. Luciferase activity was measured 48-72 hours later by adding a lysis buffer and the substrate (Catalog number Glo-lysis buffer E2661 and Bright-Glo luciferase system E2620 Promega, Madison, Wis.). Cells should not be too confluent during the assay. Percent inhibition of replication data was plotted relative to no compound control. Under the same condition, cytotoxicity of the compounds were determined using cell proliferation reagent, WST-1 (Roche, Germany). The compounds showing antiviral activities, but no significant cytotoxicities were chosen to determine EC50 and TC50, the effective concentration and toxic concentration at which 50% of the maximum inhibition is observed. For these determinations, a 10 point, 2-fold serial dilution for each compound was used, which spans a concentration range of 1000 fold. EC50 and similarly the TC50 values were calculated by fitting % inhibition at each concentration to the following equation: % inhibition=100%/[(EC50/[I])^b+1] where b is Hill's coefficient.

Compound | inhibition at 6.25 µM
O=C(O)c1cc2c(s1)c(C1=CCCCC1)c(-c1ccc3nc(-c4ccccc4F)ccc3c1)n2CC(=O)N1CCOCC1 [compound 186, 6-Cyclohex-1-enyl-5-[2-(2-fluoro-phenyl)-quinolin-6-yl]-4-(2-morpholin-4-yl-2-oxo-ethyl)-4H-thieno[3,2-b]pyrrole-2-carboxylic acid] | 75%
Cc1nc(C)c(-c2ccc3cc(-c4c(C5=CCCCC5)c5sc(C(=O)O)cc5n4CC(=O)N4CCOCC4)ccc3n2)s1 [compound 187, 6-Cyclohex-1-enyl-5-[2-(2,4-dimethyl-thiazol-5-yl)-quinolin-6-yl]-4-(2-morpholin-4-yl-2-oxo-ethyl)-4H-thieno[3,2-b]pyrrole-2-carboxylic acid] | 63%
O=C(O)c1cc2c(s1)c(C1CCCCC1)c(-c1ccc3nc(-c4ccccc4F)ccc3c1)n2CC(=O)N1CCOCC1 [compound 188, 6-Cyclohexyl-5-[2-(2-fluoro-phenyl)-quinolin-6-yl]-4-(2-morpholin-4-yl-2-oxo-ethyl)-4H-thieno[3,2-b]pyrrole-2-carboxylic acid] | 99%
Cc1nc(C)c(-c2ccc3cc(-c4c(C5CCCCC5)c5sc(C(=O)O)cc5n4CC(=O)N4CCOCC4)ccc3n2)s1 [compound 189, 6-cyclohexyl-5-[2-(2,4-dimethyl-thiazol-5-yl)-quinolin-6-yl]-4-(2-morpholin-4-yl-2-oxo-ethyl)-4H-thieno[3,2-b]pyrrole-2-carboxylic acid] | 100%
Cc1nc(C)c(-c2ccc3cc(-c4c(C5CCCCC5)c5sc(C(=O)O)cc5n4CC(=O)N4CCSCC4)ccc3n2)s1 [compound 190, 6-Cyclohexyl-5-[2-(2,4-dimethyl-thiazol-5-yl)-quinolin-6-yl]-4-(2-oxo-2-thiomorpholin-4-yl-ethyl)-4H-thieno[3,2-b]pyrrole-2-carboxylic acid] | 98%
Cc1nc(C)c(-c2ccc3cc(-c4c(C5CCCCC5)c5sc(C(=O)O)cc5n4CC(=O)N4CCCCC4)ccc3n2)s1 [compound 191, 6-cyclohexyl-5-[2-(2,4-dimethyl-thiazol-5-yl)-quinolin-6-yl]-4-(2-oxo-2-piperidin-1-yl-ethyl)-4H-thieno[3,2-b]pyrrole-2-carboxylic acid] | 97%
